Converted amounts (≈) assume the structure as drawn.

One experiment concerns LH1. The experiment in a line: ETEST antibiotic sensitivity of LH1. As to conditions: 24 h, read-out: Susceptible to. In kind it is cell-based.
For `CC[C@H]1OC(=O)[C@H](C)[C@@H](O[C@H]2C[C@@](C)(OC)[C@@H](O)[C@H](C)O2)[C@H](C)[C@@H](O[C@@H]2O[C@H](C)C[C@H](N(C)C)[C@H]2O)[C@](C)(OC)C[C@@H](C)C(=O)[C@H](C)[C@@H](O)[C@]1(C)O` [Clarithromycin], the MIC stood at 0.16 µg/mL (≈ 0.214 µM).

The same experiment, now with this note: ETEST, LH1, 24-hours anaerobic incubation.
On to `NCC[C@H](O)C(=O)N[C@@H]1C[C@H](N)[C@@H](O[C@H]2O[C@H](CN)[C@@H](O)[C@H](O)[C@H]2O)[C@H](O)[C@H]1O[C@H]1O[C@H](CO)[C@@H](O)[C@H](N)[C@H]1O` [Amikacin], for which the “Resistant to” value was 48 µg/mL.
Consider `O=C(O)c1cn(C2CC2)c2cc(N3CCNCC3)c(F)cc2c1=O` [Ciprofloxacin), Ciprofloxacin], for which the “Resistant to” value was 32 µg/mL.
With `C[C@H]1COc2c(N3CCN(C)CC3)c(F)cc3c(=O)c(C(=O)O)cn1c23` [Levofloxacin], the “Resistant to” value worked out at 12 µg/mL.
Consider `CCN1CCN(C(=O)N[C@@H](C(=O)N[C@@H]2C(=O)N3[C@@H]2SC(C)(C)[C@@H]3C(=O)O)c2ccccc2)C(=O)C1=O` [Piperacillan], for which the “Susceptible to” value is 0.19 µg/mL.
`NC[C@H]1O[C@H](O[C@H]2[C@H](O)[C@@H](O[C@H]3O[C@H](CO)[C@@H](O)[C@H](N)[C@H]3O)[C@H](N)C[C@@H]2N)[C@H](N)C[C@@H]1O` [Tobramycin]: the “Resistant to” value was greater than 512 µg/mL.
As for Amoxicillin/Clavulanic Acid, the “Susceptible to” value is 0.125 µg/mL.
For the molecule Trimethoprim/Sulfamethoxazole, the “Resistant to” value was 32 µg/mL.

Still in this experiment, the particulars now being: ETEST, LH1, 24-hours anaerobic incubation; read-out: Susceptible to.
Take `C[C@H]1[C@H](NC(=O)/C(=N\OC(C)(C)C(=O)O)c2csc(N)n2)C(=O)N1S(=O)(=O)O` [Aztreonam]: the MIC turned out to be 2 µg/mL (≈ 4.59 µM).
With `CC[C@H]1OC(=O)[C@H](C)[C@@H](O[C@H]2C[C@@](C)(OC)[C@@H](O)[C@H](C)O2)[C@H](C)[C@@H](O[C@@H]2O[C@H](C)C[C@H](N(C)C)[C@H]2O)[C@](C)(O)C[C@@H](C)C(=O)[C@H](C)[C@@H](O)[C@]1(C)O` [Erythromycin], the MIC was 0.023 µg/mL (≈ 0.0313 µM).
Regarding `C[C@@H](O)[C@H]1C(=O)N2C(C(=O)O)=C(SCCN=CN)C[C@H]12` [Imipenem], the MIC was found to be 0.094 µg/mL (≈ 0.314 µM).
Consider `CC(=O)NC[C@H]1CN(c2ccc(N3CCOCC3)c(F)c2)C(=O)O1` [Linezolid], for which the MIC is 0.5 µg/mL (≈ 1.48 µM).
In the case of `CO[C@H]1/C=C/O[C@@]2(C)Oc3c(C)c(O)c4c(O)c(c(/C=N/N5CCN(C)CC5)c(O)c4c3C2=O)NC(=O)/C(C)=C\C=C\[C@H](C)[C@H](O)[C@@H](C)[C@@H](O)[C@@H](C)[C@H](OC(C)=O)[C@@H]1C` [Rifampicin], the MIC was 0.125 µg/mL (≈ 0.152 µM).
Regarding `CN(C)[C@@H]1C(O)=C(C(N)=O)C(=O)[C@@]2(O)C(O)=C3C(=O)c4c(O)cccc4[C@@](C)(O)[C@H]3C[C@@H]12` [Tetracycline], the MIC was 0.5 µg/mL (≈ 1.13 µM).
`CN[C@H](CC(C)C)C(=O)N[C@H]1C(=O)N[C@@H](CC(N)=O)C(=O)N[C@H]2C(=O)N[C@H]3C(=O)N[C@H](C(=O)N[C@H](C(=O)O)c4cc(O)cc(O)c4-c4cc3ccc4O)[C@H](O)c3ccc(c(Cl)c3)Oc3cc2cc(c3O[C@@H]2O[C@H](CO)[C@@H](O)[C@H](O)[C@H]2O[C@H]2C[C@](C)(N)[C@H](O)[C@H](C)O2)Oc2ccc(cc2Cl)[C@H]1O` [Vancomycin]: the MIC was 1.5 µg/mL (≈ 1.04 µM).

Source of the values: patent publication US20210353693A1, “Live Biotherapeutics to Treat and Prevent Lung Conditions” (priority 2018, published 2021).
